Laboratory results taken from patent US20150283237A1, “CTLA-4 BLOCKADE WITH METRONOMIC CHEMOTHERAPY FOR THE TREATMENT OF CANCER” (priority 2014, published 2015).
Structures can show the parent of a compound that is named as a salt.

What was measured:
EMT-6/P tumors = test: Growth and event-free survival of subcutaneously implanted EMT-6/P tumors in BALB/c mice; assay type: in vivo, mouse; conditions: first experiment, FIG. 1A; s.c. EMT-6/P tumors in BALB/c mice, therapy from 50 mm3
Protocol: The combination of CTLA-4 blockade with metronomic chemotherapy regimens was evaluated. Murine EMT-6 breast tumor cells were subcutaneously implanted into syngeneic BALB/c mice (n=6-8/group) and therapies on the established tumors were evaluated. Murine CTLA-4 blockade was achieved using anti-mouse CD152 (CTLA-4), clone 9H10, injected on day 1 (100 μg/mouse) and on day 6 (35 μg/mouse) of therapy. Anti-CTLA-4 therapy was administered alone or combined with metronomic regimens. These included: (a) bolus (150 mg/kg, i.p.) CTX followed by metronomic CTX (20 mg/kg/day, p.o.), (b) metronomic CTX, and (c) sequential gemcitabine therapy (160 mg/kg every 3 days, i.p.) given when the tumors relapsed after the anti-CTLA-4 therapy.
Anti-CTLA-4 therapy combined with bolus plus low-dose CTX. To evaluate whether metronomic CTX regimens could be combined effectively with an anti-CTLA-4 treatment, a combination regimen was tested on subcutaneously implanted EMT-6/P tumors (FIG. 1A). For the chemotherapy component, a bolus with low dose CTX protocol consisting of a bolus of CTX (given on day 1 as a 150 mg/kg, i.p. injection) plus low-dose CTX (20 mg/kg/day, p.o., from day 1) was used. […]
Mice were monitored twice weekly for tumor growth, as measured using Vernier calipers, and calculated using the formula (length×width)/2, and for fluctuations in body weight. […]

[1] = mouse, in vivo
Description: To assess the relative toxicity of the therapies, body weights of the mice over the course of the experiment was monitored, as in the previous studies (du Manoir et al., Clin Cancer Res., 2006, 12:904-16; Francia et al., Mol Cancer Ther., 2012, 11:680-89).
Mice were monitored twice weekly for tumor growth, as measured using Vernier calipers, and calculated using the formula (length×width)/2, and for fluctuations in body weight. Institutional guidelines were followed to determine when the experimental end points were reached. Results were also plotted as event-free survival (Kaplan-Meier analysis) over time, where the duration of event-free survival was defined as time to primary tumor progression beyond 1,200 mm3 or >15% weight loss, as in the previous study (du Manoir et al., Clin Cancer Res., 2006, 12, 904-16).

SMILES	impact of therapy on tumor growth (EMT-6/P tumors)	body weight change / toxicity [1]
O=P1(N(CCCl)CCCl)NCCCO1 (centres unmarked) [bolus with low dose CTX, Cyclophosphamide]	minimal reduction in tumor growth	–
Nc1ccn([C@@H]2O[C@H](CO)[C@@H](O)C2(F)F)c(=O)n1 [gemcitabine, Gemcitabine hydrochloride]	–	slight weight drop
